Converted amounts (≈) assume the structure as drawn. Like-named read-outs stand apart in the source and are kept apart here.
Assays:
[1] = system: Eikenella corrodens; test: In vitro MIC testing against anaerobic bacteria; assay type: cell-based; conditions: ATCC43278; Eikenella corrodens 1206, ATCC 43278; read-out: MIC
[2] = system: E. coli; test: In vitro MIC testing, antibacterial spectrum of activity; assay type: cell-based; conditions: E. coli [tetS] (7 isolates)
[3] = system: Streptococcus spp. [Group C]; test: as above; assay type: cell-based; conditions: Streptococcus spp. [Group C] (30 isolates)
[4] = system: E. faecalis; test: as above; assay type: cell-based
[5] = system: S. epidermidis; test: as above; assay type: cell-based, Staphylococcus epidermidis; conditions: for MIC50 / MIC90: Staphylococcus epidermidis; for MIC50: read-out: MIC50; for MIC90: read-out: MIC90
[6] = system: Prevotella melaninogenica; test: In vitro MIC testing against anaerobic bacteria; assay type: cell-based
[7] = system: Streptococcus intermedius; test: In vitro MIC testing against anaerobic bacteria; assay type: cell-based; conditions: ATCC27335; Streptococcus intermedius 1203, ATCC 27335
[8] = system: Bacteroides ovatus; test: In vitro MIC testing against anaerobic bacteria; assay type: cell-based
[9] = system: Peptostreptococcus anaerobius; test: In vitro MIC testing against anaerobic bacteria; assay type: cell-based
[10] = system: Lactobacillus casei; test: In vitro MIC testing against anaerobic bacteria; assay type: cell-based; conditions: Lacticaseibacillus casei, ATCC393; Lactobacillus casei 1722, ATCC 393
[11] = system: Bacteroides vulgatus; test: In vitro MIC testing against anaerobic bacteria; assay type: cell-based
[12] = system: Propionibacterium acnes; test: In vitro MIC testing against anaerobic bacteria; assay type: cell-based; conditions: Cutibacterium acnes, read-out: MIC
[13] = system: Bifidobacterium brevi; test: In vitro MIC testing against anaerobic bacteria; assay type: cell-based; conditions: ATCC15698; Bifidobacterium brevi 3967, ATCC 15698
[14] = system: Lactobacillus acidophilus; test: In vitro MIC testing against anaerobic bacteria; assay type: cell-based; conditions: Lactobacillus acidophilus 0681
[15] = system: E. faecium; test: In vitro MIC testing, antibacterial spectrum of activity; assay type: cell-based; conditions: for MIC / MIC50 / MIC90: Enterococcus faecium; for MIC50: read-out: MIC50; for MIC90: read-out: MIC90
[16] = system: Fusobacterium nucleatum; test: In vitro MIC testing against anaerobic bacteria; assay type: cell-based; conditions: ATCC25586; Fusobacterium nucleatum 3962, ATCC 25586; read-out: MIC
[17] = system: P. aeruginosa; test: In vitro MIC testing, antibacterial spectrum of activity; assay type: cell-based; conditions: Pseudomonas aeruginosa; P. aeruginosa (11 isolates)
[18] = system: Bifidobacterium longum; test: In vitro MIC testing against anaerobic bacteria; assay type: cell-based; conditions: ATCC15707; Bifidobacterium longum 3968, ATCC 15707
[19] = system: Peptostreptococcus micros; test: In vitro MIC testing against anaerobic bacteria; assay type: cell-based; conditions: Parvimonas micra, read-out: MIC
[20] = system: P. granulosum; test: In vitro MIC testing, antibacterial spectrum of activity; assay type: cell-based; conditions: P. granulosum [clinical isolates] (3 isolates)
[21] = system: Lactobacillus plantarum; test: In vitro MIC testing against anaerobic bacteria; assay type: cell-based; conditions: Lactiplantibacillus plantarum, ATCC39268; Lactobacillus plantarum 2791, ATCC 39268
[22] = system: Clostridium difficile; test: In vitro MIC testing against anaerobic bacteria; assay type: cell-based
[23] = system: S. pyogenes; test: In vitro MIC testing, antibacterial spectrum of activity; assay type: cell-based
[24] = system: P. avidum; test: as above; assay type: cell-based; conditions: P. avidum [clinical isolates] (4 isolates)
[25] = system: Bifidobacterium bifidum; test: In vitro MIC testing against anaerobic bacteria; assay type: cell-based; conditions: ATCC15696; Bifidobacterium bifidum 3965, ATCC 15696
[26] = system: S. agalactiae; test: In vitro MIC testing, antibacterial spectrum of activity; assay type: cell-based
[27] = system: Porphyromonas asaccharolytica; test: In vitro MIC testing against anaerobic bacteria; assay type: cell-based
[28] = system: Clostridium perfringens; test: microbe, parasite or virus in culture; assay type: cell-based
[29] = system: Bacteroides thetaiotaomicron; test: In vitro MIC testing against anaerobic bacteria; assay type: cell-based
[30] = system: Veillonella parvula; test: In vitro MIC testing against anaerobic bacteria; assay type: cell-based; conditions: ATCC17745; Veillonella parvula 1272, ATCC 17745
[31] = system: Bifidobacterium infantis; test: In vitro MIC testing against anaerobic bacteria; assay type: cell-based; conditions: ATCC15702; Bifidobacterium infantis 3966, ATCC 15702
[32] = system: K. pneumoniae; test: In vitro MIC testing, antibacterial spectrum of activity; assay type: cell-based
[33] = S. epidermidis [MRSE] (32 isolates)
[34] = S. epidermidis [MSSE] (31 isolates)
[35] = Klebsiella pneumoniae, K. pneumoniae (31 isolates)

C[C@H]1c2cccc(O)c2C(=O)C2=C(O)[C@]3(O)C(=O)C(C(N)=O)=C(O)[C@@H](N(C)C)[C@@H]3[C@@H](O)[C@@H]21 [Doxycycline, doxycycline]
MIC [1]: 0.12 µg/mL (≈ 0.27 µM) | MIC Range [2]: 0.5 to 4 µg/mL | MIC Range [3]: 0.06 to 16 µg/mL | MIC50 ([3]; read-out: MIC50): 0.12 µg/mL (≈ 0.27 µM) | MIC90 ([3]; read-out: MIC90): 8 µg/mL (≈ 18 µM) | MIC Range ([4]; E. faecalis [VSE] (31 isolates)): 0.12 to 16 µg/mL | MIC Range ([4]; E. faecalis [tetR] (6 isolates)): 2 to 16 µg/mL | MIC Range ([4]; E. faecalis [tetS] (4 isolates)): ≦0.06-0.125 μg/mL | MIC ([4]; Enterococcus faecalis, E. faecalis strain PBS # 274, tetL): 16 µg/mL (≈ 36 µM) | MIC ([4]; Enterococcus faecalis, E. faecalis strain PBS # 276, tetM): 8 µg/mL (≈ 18 µM) | MIC ([4]; Enterococcus faecalis, E. faecalis strain PBS # 949, tetS): 2 µg/mL (≈ 4.5 µM) | MIC50 ([4]; Enterococcus faecalis, E. faecalis [VSE] (31 isolates), read-out: MIC50): 8 µg/mL (≈ 18 µM) | MIC90 ([4]; Enterococcus faecalis, E. faecalis [VSE] (31 isolates), read-out: MIC90): 8 µg/mL (≈ 18 µM) | MIC Range [5, 33]: 0.12 to 8 µg/mL | MIC Range [5, 34]: 0.06 to 1 µg/mL | MIC50 [5, 33]: 0.5 µg/mL (≈ 1.13 µM) | MIC90 [5, 33]: 1 µg/mL (≈ 2.25 µM) | MIC50 [5, 34]: 0.12 µg/mL (≈ 0.27 µM) | MIC90 [5, 34]: 1 µg/mL (≈ 2.25 µM) | MIC [6]: 16 µg/mL (≈ 36 µM) | MIC ([6]; Prevotella melaninogenica 3443, read-out: MIC): 1 µg/mL (≈ 2.25 µM) | MIC [7]: 0.5 µg/mL (≈ 1.13 µM) | MIC ([8]; Bacteroides ovatus 3503, read-out: MIC): 8 µg/mL (≈ 18 µM) | MIC ([8]; Bacteroides ovatus 3508, read-out: MIC): 0.12 µg/mL (≈ 0.27 µM) | MIC ([9]; Peptostreptococcus anaerobius 3526): 2 µg/mL (≈ 4.5 µM) | MIC ([9]; Peptostreptococcus anaerobius 3531): 4 µg/mL (≈ 9 µM) | MIC [10]: 2 µg/mL (≈ 4.5 µM) | MIC ([11]; Bacteroides vulgatus 3494): 8 µg/mL (≈ 18 µM) | MIC ([11]; Phocaeicola vulgatus, Bacteroides vulgatus 3389, read-out: MIC): 8 µg/mL (≈ 18 µM) | MIC ([12]; ATCC11829, Propionibacterium acnes 1286, ATCC 11829): 0.5 µg/mL (≈ 1.13 µM) | MIC ([12]; Propionibacterium acnes 1713): 0.12 µg/mL (≈ 0.27 µM) | MIC [13]: 0.5 µg/mL (≈ 1.13 µM) | MIC [14]: 2 µg/mL (≈ 4.5 µM) | MIC Range ([15]; E. faecium [VRE] (30 isolates)): 0.06 to 16 µg/mL | MIC Range ([15]; E. faecium [VSE] (32 isolates)): 0.06 to 32 µg/mL | MIC Range ([15]; E. faecium [tetR] (6 isolates)): 4 to 16 µg/mL | MIC ([15]; E. faecium strain PBS # 965, tetM): 4 µg/mL (≈ 9 µM) | MIC ([15]; E. faecium strain PBS # 1323, tetK): 4 µg/mL (≈ 9 µM) | MIC ([15]; E. faecium strain PBS # 1324, tetO): 4 µg/mL (≈ 9 µM) | MIC50 ([15]; E. faecium [VRE] (30 isolates)): 1 µg/mL (≈ 2.25 µM) | MIC90 ([15]; E. faecium [VRE] (30 isolates)): 8 µg/mL (≈ 18 µM) | MIC50 ([15]; E. faecium [VSE] (32 isolates)): 0.5 µg/mL (≈ 1.13 µM) | MIC90 ([15]; E. faecium [VSE] (32 isolates)): 16 µg/mL (≈ 36 µM) | MIC [16]: 0.5 µg/mL (≈ 1.13 µM) | MIC50 [17]: > 32 µg/mL | MIC90 [17]: > 32 µg/mL | MIC [18]: 1 µg/mL (≈ 2.25 µM) | MIC ([19]; Peptostreptococcus micros 3432): 0.12 µg/mL (≈ 0.27 µM) | MIC ([19]; Peptostreptococcus micros 3545): 0.5 µg/mL (≈ 1.13 µM) | MIC Range [20]: 0.5 to 1 µg/mL | MIC [21]: 2 µg/mL (≈ 4.5 µM) | MIC ([22]; Clostridioides difficile): 0.06 µg/mL (≈ 0.135 µM) | MIC ([22]; Clostridium difficile 3584): 0.06 µg/mL (≈ 0.135 µM) | MIC Range ([23]; S. pyogenes (32 isolates)): 0.06 to 8 µg/mL | MIC Range ([23]; S. pyogenes [tetR] (5 isolates)): 4 to 8 µg/mL | MIC Range ([23]; S. pyogenes [tetS] (5 isolates)): ≦0.06-0.125 μg/mL | MIC ([23]; Streptococcus pyogenes, S. pyogenes strain PBS # 330, tetO): 8 µg/mL (≈ 18 µM) | MIC ([23]; Streptococcus pyogenes, S. pyogenes strain PBS # 792, tetM): 4 µg/mL (≈ 9 µM) | MIC50 ([23]; Streptococcus pyogenes, S. pyogenes (32 isolates), read-out: MIC50): 0.12 µg/mL (≈ 0.27 µM) | MIC90 ([23]; Streptococcus pyogenes, S. pyogenes (32 isolates), read-out: MIC90): 4 µg/mL (≈ 9 µM) | MIC Range [24]: 0.5 to 4 µg/mL | MIC [25]: 0.5 µg/mL (≈ 1.13 µM) | MIC Range ([26]; S. agalactiae (31 isolates)): 0.06 to 16 µg/mL | MIC Range ([26]; S. agalactiae [tetR] (7 isolates)): 8 to 16 µg/mL | MIC Range ([26]; S. agalactiae [tetS] (3 isolates)): 0.25-0.25 μg/mL | MIC ([26]; Streptococcus agalactiae, S. agalactiae strain PBS # 316, tetO): 8 µg/mL (≈ 18 µM) | MIC ([26]; Streptococcus agalactiae, S. agalactiae strain PBS # 897, tetM): 8 µg/mL (≈ 18 µM) | MIC50 ([26]; Streptococcus agalactiae, S. agalactiae (31 isolates), read-out: MIC50): 8 µg/mL (≈ 18 µM) | MIC90 ([26]; Streptococcus agalactiae, S. agalactiae (31 isolates), read-out: MIC90): 16 µg/mL (≈ 36 µM) | MIC ([27]; Porphyromonas asaccharolytica 3552, read-out: MIC): 4 µg/mL (≈ 9 µM) | MIC ([27]; Porphyromonas asaccharolytica 3557, read-out: MIC): 2 µg/mL (≈ 4.5 µM) | MIC [28]: 16 µg/mL (≈ 36 µM) | MIC ([29]; Bacteroides thetaiotaomicron 3399): 0.25 µg/mL (≈ 0.563 µM) | MIC ([29]; Bacteroides thetaiotaomicron 3496): 16 µg/mL (≈ 36 µM) | MIC [30]: 1 µg/mL (≈ 2.25 µM) | MIC [31]: 0.5 µg/mL (≈ 1.13 µM) | MIC Range ([32]; K. pneumoniae [tetS] (7 isolates)): 0.5 to 8 µg/mL | MIC50 [32, 35]: 8 µg/mL (≈ 18 µM) | MIC90 [32, 35]: > 32 µg/mL
